Our source for the residual activity and IC50 values is ChEMBL document CHEMBL3217452, “Design, synthesis, and structureactivity relationships of 1,3,4-oxadiazol-2(3H)-ones as novel FAAH inhibitors” (Medchemcomm, 2011).

Assay [1] concerns Mus musculus. Nature of the assay: Inhibition of FAAH in mouse brain at 30 mg/kg, po after 24 hrs. It is filed as functional. The note with it: values are per cent of control.
Assay [2] concerns Mus musculus. Nature of the assay: Inhibition of FAAH in mouse brain at 30 mg/kg, po after 1 hr. The class given is functional. The conditions noted are these: values are per cent of control.
Assay [3] deals with Mus musculus. Nature of the assay: Inhibition of FAAH in mouse brain at 30 mg/kg, po after 4 hrs. The class given is functional. The note with it: values are per cent of control.
Assay [4] concerns Mus musculus. Nature of the assay: Inhibition of FAAH in mouse liver at 30 mg/kg, po after 1 hr. The class given is functional. The conditions noted are these: values are per cent of control.
For assay [5], the system named is Mus musculus. Nature of the assay: Inhibition of FAAH in mouse brain at 30 mg/kg, po after 8 hrs. It is filed as functional. The note with it: values are per cent of control.
Assay [6] has as its system Mus musculus. Nature of the assay: Inhibition of FAAH in mouse liver at 30 mg/kg, po after 24 hrs. The conditions noted are these: values are per cent of control. The class given is functional.
Assay [7] has as its system Mus musculus. Nature of the assay: Inhibition of FAAH in mouse liver at 30 mg/kg, po after 8 hrs. The class given is functional. The conditions noted are these: values are per cent of control.
For assay [8], the target named is T1, Fatty-acid amide hydrolase 1 (Rattus norvegicus) (UniProt P97612).
T1 sequence (whole entry): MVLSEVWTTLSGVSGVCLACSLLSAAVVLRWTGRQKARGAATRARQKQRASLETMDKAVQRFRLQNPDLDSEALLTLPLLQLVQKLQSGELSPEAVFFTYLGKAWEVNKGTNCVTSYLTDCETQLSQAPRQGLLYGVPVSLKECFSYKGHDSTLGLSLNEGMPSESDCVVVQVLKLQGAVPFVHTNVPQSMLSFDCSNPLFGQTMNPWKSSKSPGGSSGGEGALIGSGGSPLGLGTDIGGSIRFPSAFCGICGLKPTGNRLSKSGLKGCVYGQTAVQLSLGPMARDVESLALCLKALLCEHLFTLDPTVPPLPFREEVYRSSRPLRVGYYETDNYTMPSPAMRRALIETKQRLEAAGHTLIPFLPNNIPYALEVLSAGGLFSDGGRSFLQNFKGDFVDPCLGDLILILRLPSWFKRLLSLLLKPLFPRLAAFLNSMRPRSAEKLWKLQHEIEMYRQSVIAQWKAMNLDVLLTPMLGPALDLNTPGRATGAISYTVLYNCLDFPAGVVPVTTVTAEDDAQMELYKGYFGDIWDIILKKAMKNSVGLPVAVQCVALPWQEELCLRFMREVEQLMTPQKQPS
Nature of the assay: Inhibition of FAAH in rat brain homogenates using [3H]-anandamide as substrate assessed as formation of [3H]-ethanolamine at 10 uM relative to control. The class given is tissue-based. The conditions noted are these: values are per cent of control.

The subject of assay [9] is Mus musculus. Nature of the assay: Inhibition of FAAH in mouse liver at 30 mg/kg, po after 4 hrs. The note with it: values are per cent of control. It is filed as functional.
The subject of assay [10] is Mus musculus. Nature of the assay: Inhibition of FAAH in mouse liver at 10 mg/kg, po after 24 hrs. The class given is functional. The note with it: values are per cent of control.
Assay [11] has as its system Mus musculus. Nature of the assay: Inhibition of FAAH in mouse liver at 10 mg/kg, po after 8 hrs. The class given is functional. The conditions noted are these: values are per cent of control.
The test system of assay [12] is Mus musculus. Nature of the assay: Inhibition of FAAH in mouse brain at 10 mg/kg, po after 8 hrs. It is filed as functional. The conditions noted are these: values are per cent of control.
The test system of assay [13] is Mus musculus. Nature of the assay: Inhibition of FAAH in mouse brain at 10 mg/kg, po after 4 hrs. The class given is functional. The note with it: values are per cent of control.
For assay [14], the system named is Mus musculus. Nature of the assay: Inhibition of FAAH in mouse liver at 10 mg/kg, po after 4 hrs. It is filed as functional. The conditions noted are these: values are per cent of control.
The test system of assay [15] is Mus musculus. Nature of the assay: Inhibition of FAAH in mouse brain at 10 mg/kg, po after 1 hr. It is filed as functional. The conditions noted are these: values are per cent of control.
The subject of assay [16] is Mus musculus. Nature of the assay: Inhibition of FAAH in mouse liver at 10 mg/kg, po after 1 hr. The conditions noted are these: values are per cent of control. It is filed as functional.
The test system of assay [17] is Mus musculus. Nature of the assay: Inhibition of FAAH in mouse brain at 10 mg/kg, po after 24 hrs. The class given is functional. The note with it: values are per cent of control.
For assay [18], the target named is T2, Fatty-acid amide hydrolase 1 (Homo sapiens, UniProt O00519).
T2 sequence (O00519 whole entry): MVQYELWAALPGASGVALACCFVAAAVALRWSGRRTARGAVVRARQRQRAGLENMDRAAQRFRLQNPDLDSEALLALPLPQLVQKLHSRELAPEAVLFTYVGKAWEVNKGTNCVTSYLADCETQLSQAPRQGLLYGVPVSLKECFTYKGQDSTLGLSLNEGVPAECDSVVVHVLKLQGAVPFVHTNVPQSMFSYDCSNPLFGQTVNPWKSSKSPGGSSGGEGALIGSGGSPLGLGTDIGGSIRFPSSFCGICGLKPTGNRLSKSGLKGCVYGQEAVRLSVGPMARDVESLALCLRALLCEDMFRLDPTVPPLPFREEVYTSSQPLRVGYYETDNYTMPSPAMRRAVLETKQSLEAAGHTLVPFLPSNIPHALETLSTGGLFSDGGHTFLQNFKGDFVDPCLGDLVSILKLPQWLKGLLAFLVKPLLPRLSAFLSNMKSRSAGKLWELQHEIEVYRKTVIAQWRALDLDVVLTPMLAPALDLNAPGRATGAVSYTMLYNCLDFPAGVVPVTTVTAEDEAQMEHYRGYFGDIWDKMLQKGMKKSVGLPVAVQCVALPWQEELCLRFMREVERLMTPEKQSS
Nature of the assay: Inhibition of FAAH (unknown origin).

On to `O=c1oc(Oc2ccc(Cl)cc2)nn1-c1ccc(O)cc1F`, for which the residual activity at 30 mg/kg in the assay with Mus musculus [1] worked out at 80%; in the assay on Mus musculus [2] it was 64%; with Mus musculus [3], 34%; in the assay with Mus musculus [4] it was 4%; with Mus musculus [5], 57%; in the assay with Mus musculus [6] it was 79%. Also, the residual activity at 30 mg/kg with Mus musculus [7] is 7%.

Take `O=C(c1ccccc1)c1nn(-c2ccccc2)c(=O)o1`: in assay [8], the residual activity was 84%.

Regarding `O=c1oc(Cc2ccccc2)nn1-c1ccccc1`, in assay [8], the residual activity was determined as 97%.

Regarding `O=c1oc(Oc2ccccc2)nn1-c1ccccc1F`, in the assay with Mus musculus [4], the residual activity at 30 mg/kg was 72%.

Consider `O=c1oc(Oc2ccc(F)cc2)nn1-c1cccc(O)c1`, for which the residual activity at 30 mg/kg came to 99% with Mus musculus [2] and 24% in the assay with Mus musculus [4].

`O=c1oc(-c2ccccc2)nn1-c1ccccc1`: in [8], the residual activity was 110%.

With `O=c1oc(Oc2ccc(Cl)cc2)nn1-c1ccccc1`, the residual activity at 30 mg/kg in the assay on Mus musculus [2] was determined as 110%; with Mus musculus [4] it was 81%.

Consider `O=c1oc(N2CCOCC2)nn1-c1cccc(Cl)c1`, for which the residual activity in [8] amounted to 104%.

`COc1nn(-c2cccc(Cl)c2)c(=O)o1`: the residual activity in [8] stood at 5%.

As to `O=c1oc(Oc2ccc(F)cc2F)nn1-c1cccc(O)c1`, the residual activity at 30 mg/kg in the assay on Mus musculus [2] is 94%; in the assay with Mus musculus [4], 12%.

Consider `O=c1oc(Oc2ccccc2F)nn1-c1ccc(O)cc1`, for which the residual activity at 30 mg/kg was found to be 94% in the assay on Mus musculus [2] and 44% in the assay on Mus musculus [4].

With `O=c1oc(Oc2ccc(F)cc2)nn1-c1ccc(O)cc1`, the residual activity at 30 mg/kg in the assay on Mus musculus [2] was 82%; in the assay with Mus musculus [4], 30%.

As for `O=c1oc(Oc2ccc(Cl)cc2Cl)nn1-c1ccc(O)cc1`, the residual activity at 30 mg/kg in the assay with Mus musculus [1] came out at 99%; in the assay with Mus musculus [2], 59%; in the assay on Mus musculus [3], 72%; in the assay on Mus musculus [4], 9%; with Mus musculus [5], 52%; in the assay on Mus musculus [9] it was 18%. Moreover, the residual activity at 30 mg/kg in the assay on Mus musculus [6] stood at 103%; in the assay on Mus musculus [7], 11%.

Consider `O=c1oc(Oc2ccc(F)cc2F)nn1-c1ccc(O)cc1`, for which the residual activity at 30 mg/kg in the assay with Mus musculus [2] stood at 86%; in the assay with Mus musculus [4], 12%.

As to `O=c1oc(Oc2ccc(Cl)cc2)nn1-c1ccc(O)cc1`, the residual activity at 30 mg/kg in the assay with Mus musculus [2] amounted to 38%; with Mus musculus [4] it was 20%.

On to `O=c1oc(Oc2ccc([N+](=O)[O-])cc2)nn1-c1ccc(O)cc1`, for which the residual activity at 30 mg/kg in the assay on Mus musculus [2] was found to be 96%; in the assay with Mus musculus [4], 45%.

For the compound `O=c1oc(Oc2ccccc2)nn1-c1cccc(O)c1`, the residual activity at 30 mg/kg was 95% in the assay on Mus musculus [2] and 33% in the assay with Mus musculus [4].

`O=c1oc(Oc2ccc(F)cc2F)nn1-c1ccc(O)c(O)c1`: the residual activity at 10 mg/kg with Mus musculus [10] was determined as 79%; in the assay with Mus musculus [11] it was 27%; in the assay on Mus musculus [12], 103%; in the assay with Mus musculus [13] it was 100%; with Mus musculus [14], 18%; in the assay with Mus musculus [15], 102%. Also, the residual activity at 10 mg/kg in the assay with Mus musculus [16] worked out at 6%; in the assay on Mus musculus [17], 104%. Further, the residual activity at 30 mg/kg amounted to 66% in the assay with Mus musculus [2] and 4% in the assay on Mus musculus [4].

As to `O=c1oc(Oc2ccccc2)nn1-c1ccc(O)cc1`, the residual activity at 30 mg/kg was determined as 97% in the assay with Mus musculus [2] and 46% in the assay with Mus musculus [4].

Regarding `O=c1oc(OCc2ccccc2)nn1Cc1ccccc1`, the residual activity in [8] amounted to 86%.

As to `COc1cc(Br)ccc1Oc1nn(-c2ccccc2)c(=O)o1`, the residual activity at 30 mg/kg in the assay with Mus musculus [2] worked out at 101%; in the assay on Mus musculus [4], 83%.

Consider `O=c1oc(Oc2ccc(Cl)cc2)nn1-c1ccc(O)c(O)c1`, for which the residual activity at 10 mg/kg with Mus musculus [10] stood at 91%; in the assay on Mus musculus [11], 38%; in the assay with Mus musculus [12] it was 96%; in the assay with Mus musculus [13], 90%; with Mus musculus [14] it was 17%; in the assay on Mus musculus [15], 99%. In addition, the residual activity at 10 mg/kg was 10% in the assay with Mus musculus [16] and 102% in the assay with Mus musculus [17]. The residual activity at 30 mg/kg was 83% in the assay on Mus musculus [2] and 5% in the assay on Mus musculus [4].

With `COc1ccc(Oc2nn(-c3ccccc3)c(=O)o2)cc1`, the residual activity at 30 mg/kg stood at 108% in the assay on Mus musculus [2] and 94% in the assay with Mus musculus [4].

In the case of `O=c1oc(Oc2ccc(F)cc2F)nn1-c1ccccc1`, the results for the residual activity at 30 mg/kg in the assay with Mus musculus [2] and in the assay on Mus musculus [4] were 94% and 39%, respectively.

For `O=c1oc(Oc2ccc(Cl)cc2)nn1-c1cccc(O)c1`, the residual activity at 30 mg/kg came to 100% in the assay with Mus musculus [2] and 10% in the assay on Mus musculus [4].

In assay [18], `COc1nn(-c2ccc(Oc3ccccc3)cc2)c(=O)o1` showed an IC50 of 6.1 nM. In other words, the single-digit nanomolar range.

As to `O=c1oc(Oc2ccccc2)nn1-c1ccc(F)cc1F`, the figures for the residual activity at 30 mg/kg with Mus musculus [2] and in the assay on Mus musculus [4] were 86% and 65%, respectively.

A word on the residual activity: it is the signal under treatment as a percentage of the control signal. The term IC50 denotes the midpoint of a concentration-inhibition curve.
